Reference: patent publication US20250197372A1 (priority 2020, published 2025)

Assays:
[1] = molecular target: T1, recombinant human GBA (beta-glucocerebrosidase) (Homo sapiens, UniProt P04062); test: Beta-glucocerebrosidase (GBA, glucosylceramidase) assay (4-methylumbelliferyl-beta-D-pyranoside substrate, fluorescence); assay type: biochemical
T1 sequence (P04062 40-536): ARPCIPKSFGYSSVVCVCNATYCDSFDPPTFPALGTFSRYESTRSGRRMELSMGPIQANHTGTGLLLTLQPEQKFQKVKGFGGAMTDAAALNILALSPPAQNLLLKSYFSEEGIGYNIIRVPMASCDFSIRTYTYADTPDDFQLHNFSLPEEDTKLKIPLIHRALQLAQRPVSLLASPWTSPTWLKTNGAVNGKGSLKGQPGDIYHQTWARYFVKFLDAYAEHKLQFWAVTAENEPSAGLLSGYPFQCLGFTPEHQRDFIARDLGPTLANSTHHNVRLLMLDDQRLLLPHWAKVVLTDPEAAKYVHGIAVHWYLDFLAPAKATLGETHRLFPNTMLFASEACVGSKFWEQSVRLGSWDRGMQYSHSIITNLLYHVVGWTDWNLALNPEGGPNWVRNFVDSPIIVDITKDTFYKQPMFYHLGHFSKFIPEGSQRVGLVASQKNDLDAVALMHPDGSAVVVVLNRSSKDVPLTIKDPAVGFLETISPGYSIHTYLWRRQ
Summary of the method: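 IC50 by four-parameter fit of percent inhibition, with product fluorescence (365/440 nm) read after a glycine/NaOH pH 10 stop. Compound and commercial recombinant human enzyme were incubated 60 min at 37 °C before a further 60 min at 37 °C with 4-methylumbelliferyl-beta-D-pyranoside substrate.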

[2] = molecular target: rat sucrase (partially purified alpha-glucosidase from intestinal rat powder) (Rattus norvegicus, UniProt P23739); test: Intestinal alpha-glucosidase assay, sucrose substrate (Glucose GO Kit); assay type: biochemical
Sequence of rat sucrase (partially purified alpha-glucosidase from intestinal rat powder) (P23739 whole entry): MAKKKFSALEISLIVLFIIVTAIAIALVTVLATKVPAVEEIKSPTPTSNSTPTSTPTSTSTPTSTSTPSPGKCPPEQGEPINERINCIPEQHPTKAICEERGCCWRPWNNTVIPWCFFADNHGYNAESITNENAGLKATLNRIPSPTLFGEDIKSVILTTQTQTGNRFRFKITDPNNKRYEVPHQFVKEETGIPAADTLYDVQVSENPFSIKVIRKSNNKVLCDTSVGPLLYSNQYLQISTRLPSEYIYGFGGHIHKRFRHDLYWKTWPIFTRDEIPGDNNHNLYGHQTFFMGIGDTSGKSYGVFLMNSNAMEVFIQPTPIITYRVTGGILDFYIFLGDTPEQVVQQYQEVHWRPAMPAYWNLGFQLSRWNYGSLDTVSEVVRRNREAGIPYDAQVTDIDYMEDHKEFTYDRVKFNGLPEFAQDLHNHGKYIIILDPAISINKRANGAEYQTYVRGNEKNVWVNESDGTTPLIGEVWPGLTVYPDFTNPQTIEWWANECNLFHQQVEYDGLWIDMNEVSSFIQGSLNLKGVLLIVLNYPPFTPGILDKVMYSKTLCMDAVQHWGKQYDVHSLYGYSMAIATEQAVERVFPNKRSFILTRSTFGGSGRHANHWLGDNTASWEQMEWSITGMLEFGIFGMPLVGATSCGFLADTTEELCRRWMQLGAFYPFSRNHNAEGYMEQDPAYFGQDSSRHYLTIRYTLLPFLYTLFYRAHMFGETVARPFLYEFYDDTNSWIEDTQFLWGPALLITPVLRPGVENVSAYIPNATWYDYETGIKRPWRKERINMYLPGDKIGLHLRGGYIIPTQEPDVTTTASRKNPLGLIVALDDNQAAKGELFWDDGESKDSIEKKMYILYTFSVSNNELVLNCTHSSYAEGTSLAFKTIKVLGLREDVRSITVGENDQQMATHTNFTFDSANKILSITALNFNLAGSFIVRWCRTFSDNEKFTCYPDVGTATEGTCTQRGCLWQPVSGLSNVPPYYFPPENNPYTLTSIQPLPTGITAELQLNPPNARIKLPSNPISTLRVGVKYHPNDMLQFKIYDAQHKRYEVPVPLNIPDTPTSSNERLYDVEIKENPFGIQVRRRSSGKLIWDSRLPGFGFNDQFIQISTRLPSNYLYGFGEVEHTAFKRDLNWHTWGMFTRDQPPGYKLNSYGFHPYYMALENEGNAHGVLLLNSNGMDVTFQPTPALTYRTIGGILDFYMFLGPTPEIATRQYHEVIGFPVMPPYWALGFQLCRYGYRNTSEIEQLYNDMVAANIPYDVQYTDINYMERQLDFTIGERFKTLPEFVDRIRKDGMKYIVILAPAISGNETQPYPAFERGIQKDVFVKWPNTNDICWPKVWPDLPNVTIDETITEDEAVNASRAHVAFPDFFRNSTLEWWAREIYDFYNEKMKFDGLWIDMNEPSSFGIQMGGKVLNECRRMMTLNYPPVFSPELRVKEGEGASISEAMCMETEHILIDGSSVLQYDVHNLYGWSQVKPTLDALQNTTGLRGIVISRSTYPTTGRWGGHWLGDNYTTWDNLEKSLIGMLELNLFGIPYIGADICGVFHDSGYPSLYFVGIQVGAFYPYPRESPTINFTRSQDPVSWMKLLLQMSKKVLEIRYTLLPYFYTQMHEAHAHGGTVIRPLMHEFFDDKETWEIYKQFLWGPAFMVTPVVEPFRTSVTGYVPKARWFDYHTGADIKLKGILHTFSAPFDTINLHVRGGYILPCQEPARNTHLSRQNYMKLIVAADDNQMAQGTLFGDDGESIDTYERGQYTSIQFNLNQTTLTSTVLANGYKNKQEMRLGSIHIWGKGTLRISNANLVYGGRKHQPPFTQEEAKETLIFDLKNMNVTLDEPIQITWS
Summary of the method: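 Partially purified alpha-glucosidase from rat intestinal powder was preincubated 60 min at 37 °C with serial compound dilutions, then given maltose or sucrose and incubated 30 min at 37 °C.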

SMILES | IC50 [1] | IC50 [2]
Cc1nc2cc(-c3ncccn3)ccc2n1CCCCCCN1C[C@H](O)[C@@H](O)[C@H](O)[C@H]1CO [Compound 1339, (2R,3R,4R,5S)-2-(hydroxymethyl)-1-{6-[2-methyl-5-(pyrimidin-2-yl)-1H-1,3-benzodiazol-1-yl]hexyl}piperidine-3,4,5-triol] | 0.626 µM | 0.049 µM
OC[C@@H]1[C@@H](O)[C@H](O)[C@@H](O)CN1CCCCCCNc1ccc(-c2cnccn2)cc1Cl [Compound 1198, (2R,3R,4R,5S)-1-(6-{[2-chloro-4-(pyrazin-2-yl)phenyl]amino}hexyl)-2-(hydroxymethyl)piperidine-3,4,5-triol] | 2.7 µM | 0.001 µM
OC[C@@H]1[C@@H](O)[C@H](O)[C@@H](O)CN1Cc1ccc(CNc2cc(C3CC3)cc(N3CCOCC3)c2)cc1 [Compound 1010, (2R,3R,4R,5S)-1-{[4-({[3-cyclopropyl-5-(morpholin-4-yl)phenyl]amino}methyl)phenyl]methyl}-2-(hydroxymethyl)piperidine-3,4,5-triol] | > 100 µM | 0.096 µM
[N-]=[N+]=Nc1ccc(NCC/C=C/CCN2C[C@H](O)[C@@H](O)[C@H](O)[C@H]2CO)c([N+](=O)[O-])c1 [Compound 1260, (2R,3R,4R,5S)-1-[(3E)-6-[(4-azido-2-nitrophenyl)amino]hex-3-en-1-yl]-2-(hydroxymethyl)piperidine-3,4,5-triol] | 1.56 µM | 0.029 µM
CS(=O)(=O)c1cc(NCCCCCCN2C[C@H](O)[C@@H](O)[C@H](O)[C@H]2CO)cc(-c2ncccn2)c1 [Compound 1128, (2R,3R,4R,5S)-2-(hydroxymethyl)-1-(6-{[3-methanesulfonyl-5-(pyrimidin-2-yl)phenyl]amino}hexyl)piperidine-3,4,5-triol] | 5.2 µM | 0.039 µM
O=[N+]([O-])c1cc(-c2ccccc2)ccc1NCCCCCCN1C[C@H](O)[C@@H](O)[C@H](O)[C@H]1CO [Compound 1138, (2R,3R,4R,5S)-2-(hydroxymethyl)-1-[6-({3-nitro-[1,1′-biphenyl]-4-yl}amino)hexyl]piperidine-3,4,5-triol] | 0.018 µM | < 0.001 µM
O=Cc1cc(-c2ncccn2)ccc1NCCCCCCN1C[C@H](O)[C@@H](O)[C@H](O)[C@H]1CO [Compound 1184, 5-(pyrimidin-2-yl)-2-({6-[(2R,3R,4R,5S)-3,4,5-trihydroxy-2-(hydroxymethyl)piperidin-1-yl]hexyl}amino)benzaldehyde] | 0.95 µM | 0.065 µM
COCCc1ccc(CCCCCN2C[C@H](O)[C@@H](O)[C@H](O)[C@H]2CO)cc1 [Compound 1307, (2R,3R,4R,5S)-2-(hydroxymethyl)-1-{5-[4-(2-methoxyethyl)phenyl]pentyl}piperidine-3,4,5-triol] | 5 µM | 0.387 µM
COc1cc(NCCc2ccc(CCN3C[C@H](O)[C@@H](O)[C@H](O)[C@H]3CO)cc2)cc(-c2cccnn2)c1 [Compound 1157, (2R,3R,4R,5S)-2-(hydroxymethyl)-1-{2-[4-(2-{[3-methoxy-5-(pyridazin-3-yl)phenyl]amino}ethyl)phenyl]ethyl}piperidine-3,4,5-triol] | 4.59 µM | 0.228 µM
CS(=O)(=O)Nc1ccc(NCCCCCCN2C[C@H](O)[C@@H](O)[C@H](O)[C@H]2CO)c([N+](=O)[O-])c1 [Compound 1300, N-[3-nitro-4-({6-[(2R,3R,4R,5S)-3,4,5-trihydroxy-2-(hydroxy-methyl)piperidin-1-yl]hexyl}amino)phenyl]methanesulfonamide] | 0.026 µM | 0.052 µM
[N-]=[N+]=Nc1ccc(NCCc2ccc(CCN3C[C@H](O)[C@@H](O)[C@H](O)[C@H]3CO)c3c2OCCO3)c([N+](=O)[O-])c1 [Compound 1173, (2R,3R,4R,5S)-1-[2-(8-{2-[(4-azido-2-nitrophenyl)amino]ethyl}-2,3-dihydro-1,4-benzodioxin-5-yl)ethyl]-2-(hydroxymethyl)piperidine-3,4,5-triol] | 5.32 µM | 0.456 µM
